Data: ChEMBL document CHEMBL4680224, “Discovery of pyridine tetrahydroisoquinoline thiohydantoin derivatives with low blood-brain barrier penetration as the androgen receptor antagonists” (Eur J Med Chem, 2020)

What was measured:
LNCaP = test: Antiproliferative activity against human LNCaP cells assessed as reduction in cel viability after 72 hrs by MTT assay; assay type: functional, cell-based
DU-145 = test: Antiproliferative activity against human DU-145 cells assessed as reduction in cel viability after 72 hrs by MTT assay; assay type: functional, cell-based; settings: DU-145, 72 h

IC50 (LNCaP) [µM]	IC50 (DU-145) [µM]	SMILES
> 100	> 100	N#Cc1ncc(N2C(=O)C3Cc4cc(F)c(C(=O)O)cc4CN3C2=S)cc1C(F)(F)F (centres undefined)
27.7	> 100	CCC(=O)Nc1cc2c(cc1F)CC1C(=O)N(c3cnc(C#N)c(C(F)(F)F)c3)C(=S)N1C2 (centres undefined)
60.4	81.1	N#Cc1ncc(N2C(=O)C3Cc4cc(Br)c(O)c(Br)c4CN3C2=S)cc1C(F)(F)F (centres undefined)
44.9	88	CC(CO)NC(=O)c1ccc2c(c1)CN1C(=S)N(c3cnc(C#N)c(C(F)(F)F)c3)C(=O)C1C2 (centres undefined)
79	> 100	CS(=O)(=O)Nc1cc2c(cc1F)CC1C(=O)N(c3cnc(C#N)c(C(F)(F)F)c3)C(=S)N1C2 (centres undefined)
12.2	> 100	CCOC(=O)Nc1ccc2c(c1)CN1C(=S)N(c3cnc(C#N)c(C(F)(F)F)c3)C(=O)C1C2 (centres undefined)
65.9	91.7	CCOc1ccc2c(c1)CN1C(=S)N(c3cnc(C#N)c(C(F)(F)F)c3)C(=O)C1C2 (centres undefined)
102	> 100	CCCCS(=O)(=O)Nc1cc2c(cc1F)CC1C(=O)N(c3cnc(C#N)c(C(F)(F)F)c3)C(=S)N1C2 (centres undefined)
32.1	> 100	N#Cc1ncc(N2C(=O)C3Cc4cc(F)c(N)cc4CN3C2=S)cc1C(F)(F)F (centres undefined)
84.1	84.4	CCCCS(=O)(=O)Nc1ccc2c(c1)CN1C(=S)N(c3cnc(C#N)c(C(F)(F)F)c3)C(=O)C1C2 (centres undefined)
20.1	92.5	CCCNC(=O)c1cc2c(cc1F)CC1C(=O)N(c3cnc(C#N)c(C(F)(F)F)c3)C(=S)N1C2 (centres undefined)
17	> 100	CCOC(=O)CCCOc1ccc2c(c1)CN1C(=S)N(c3cnc(C#N)c(C(F)(F)F)c3)C(=O)C1C2 (centres undefined)
48.7	83.9	CCCCS(=O)(=O)Nc1ccc2c(c1)N1C(=S)N(c3cnc(C#N)c(C(F)(F)F)c3)C(=O)C1CC2 (centres undefined)
29	83.4	N#Cc1ncc(N2C(=O)C3Cc4cc(F)c([N+](=O)[O-])cc4CN3C2=S)cc1C(F)(F)F (centres undefined)
72.3	92.4	N#Cc1ncc(N2C(=O)C3Cc4ccc(C(=O)NC5CCCCC5)cc4CN3C2=S)cc1C(F)(F)F (centres undefined)
21.6	> 100	N#Cc1ncc(N2C(=O)C3Cc4ccccc4CN3C2=S)cc1C(F)(F)F (centres undefined)
39.9	> 100	CCC(=O)Nc1ccc2c(c1)CCC1C(=O)N(c3cnc(C#N)c(C(F)(F)F)c3)C(=S)N21 (centres undefined)
32.5	89.7	CCCC(=O)Nc1ccc2c(c1)CCC1C(=O)N(c3cnc(C#N)c(C(F)(F)F)c3)C(=S)N21 (centres undefined)
35.7	90.3	CCOC(=O)Nc1ccc2c(c1)N1C(=S)N(c3cnc(C#N)c(C(F)(F)F)c3)C(=O)C1CC2 (centres undefined)
55.5	86.2	COC(=O)c1cc2c(cc1F)CC1C(=O)N(c3cnc(C#N)c(C(F)(F)F)c3)C(=S)N1C2 (centres undefined)
> 100	> 100	N#Cc1ncc(N2C(=O)C3Cc4ccc(C(=O)O)cc4CN3C2=S)cc1C(F)(F)F (centres undefined)
25.9	> 100	COc1ccc2c(c1)CN1C(=S)N(c3cnc(C#N)c(C(F)(F)F)c3)C(=O)C1C2 (centres undefined)
48.8	> 100	CCC(=O)Nc1ccc2c(c1)N1C(=S)N(c3cnc(C#N)c(C(F)(F)F)c3)C(=O)C1CC2 (centres undefined)
23.1	54.1	CC(=O)Nc1ccc2c(c1)CN1C(=S)N(c3cnc(C#N)c(C(F)(F)F)c3)C(=O)C1C2 (centres undefined)
58.4	75.5	COC(=O)c1ccc2c(c1)CN1C(=S)N(c3cnc(C#N)c(C(F)(F)F)c3)C(=O)C1C2 (centres undefined)
75.7	> 100	N#Cc1ncc(N2C(=O)C3Cc4ccc([N+](=O)[O-])cc4CN3C2=S)cc1C(F)(F)F (centres undefined)

IC50 (LNCaP) [µM]	IC50 (DU-145) [µM]	SMILES
> 100	> 100	CS(=O)(=O)Nc1ccc2c(c1)N1C(=S)N(c3cnc(C#N)c(C(F)(F)F)c3)C(=O)C1CC2 (centres undefined)
16.3	93.8	CCCCNC(=O)c1cc2c(cc1F)CC1C(=O)N(c3cnc(C#N)c(C(F)(F)F)c3)C(=S)N1C2 (centres undefined)
22.9	81.1	CCC(=O)Nc1ccc2c(c1)CN1C(=S)N(c3cnc(C#N)c(C(F)(F)F)c3)C(=O)C1C2 (centres undefined)
89.7	> 100	CC(=O)Nc1ccc2c(c1)N1C(=S)N(c3cnc(C#N)c(C(F)(F)F)c3)C(=O)C1CC2 (centres undefined)
28.3	> 100	CC(=O)Nc1cc2c(cc1F)CC1C(=O)N(c3cnc(C#N)c(C(F)(F)F)c3)C(=S)N1C2 (centres undefined)
23.7	> 100	CCOC(=O)Nc1ccc2c(c1)CCC1C(=O)N(c3cnc(C#N)c(C(F)(F)F)c3)C(=S)N21 (centres undefined)
11.6	89.4	CCCCNC(=O)c1ccc2c(c1)CN1C(=S)N(c3cnc(C#N)c(C(F)(F)F)c3)C(=O)C1C2 (centres undefined)
46	97.8	CCCC(=O)Nc1ccc2c(c1)N1C(=S)N(c3cnc(C#N)c(C(F)(F)F)c3)C(=O)C1CC2 (centres undefined)
34.2	> 100	CCCC(=O)Nc1ccc2c(c1)CN1C(=S)N(c3cnc(C#N)c(C(F)(F)F)c3)C(=O)C1C2 (centres undefined)
43.8	67.4	CNC(=O)c1cc2c(cc1F)CC1C(=O)N(c3cnc(C#N)c(C(F)(F)F)c3)C(=S)N1C2 (centres undefined)
27.9	> 100	CCCC(=O)Nc1cc2c(cc1F)CC1C(=O)N(c3cnc(C#N)c(C(F)(F)F)c3)C(=S)N1C2 (centres undefined)
29.3	53.2	CCNC(=O)c1ccc2c(c1)CN1C(=S)N(c3cnc(C#N)c(C(F)(F)F)c3)C(=O)C1C2 (centres undefined)
85.9	96.3	COc1c(Br)cc2c(c1Br)CN1C(=S)N(c3cnc(C#N)c(C(F)(F)F)c3)C(=O)C1C2 (centres undefined)
32.3	91.4	CCNC(=O)c1cc2c(cc1F)CC1C(=O)N(c3cnc(C#N)c(C(F)(F)F)c3)C(=S)N1C2 (centres undefined)
47.5	72.2	CC(O)CNC(=O)c1cc2c(cc1F)CC1C(=O)N(c3cnc(C#N)c(C(F)(F)F)c3)C(=S)N1C2 (centres undefined)
41.2	> 100	CC(=O)Nc1ccc2c(c1)CCC1C(=O)N(c3cnc(C#N)c(C(F)(F)F)c3)C(=S)N21 (centres undefined)
29.1	83.9	N#Cc1ncc(N2C(=O)C3Cc4ccc(C(=O)NCCO)cc4CN3C2=S)cc1C(F)(F)F (centres undefined)
20	> 100	CCCCOc1ccc2c(c1)CN1C(=S)N(c3cnc(C#N)c(C(F)(F)F)c3)C(=O)C1C2 (centres undefined)
44.7	> 100	N#Cc1ncc(N2C(=O)C3Cc4ccc(N)cc4CN3C2=S)cc1C(F)(F)F (centres undefined)
34.2	71.3	CC(CO)NC(=O)c1cc2c(cc1F)CC1C(=O)N(c3cnc(C#N)c(C(F)(F)F)c3)C(=S)N1C2 (centres undefined)
18.1	90.4	CCCNC(=O)c1ccc2c(c1)CN1C(=S)N(c3cnc(C#N)c(C(F)(F)F)c3)C(=O)C1C2 (centres undefined)
> 100	> 100	CS(=O)(=O)Nc1ccc2c(c1)CCC1C(=O)N(c3cnc(C#N)c(C(F)(F)F)c3)C(=S)N21 (centres undefined)
90.2	> 100	CS(=O)(=O)Nc1ccc2c(c1)CN1C(=S)N(c3cnc(C#N)c(C(F)(F)F)c3)C(=O)C1C2 (centres undefined)
54.7	90.1	CCCCS(=O)(=O)Nc1ccc2c(c1)CCC1C(=O)N(c3cnc(C#N)c(C(F)(F)F)c3)C(=S)N21 (centres undefined)
84.7	67.6	N#Cc1ncc(N2C(=O)C3Cc4cc(F)c(C(=O)NC5CCCCC5)cc4CN3C2=S)cc1C(F)(F)F (centres undefined)
36.7	83.6	CNC(=O)c1ccc2c(c1)CN1C(=S)N(c3cnc(C#N)c(C(F)(F)F)c3)C(=O)C1C2 (centres undefined)
